Measurements as given in PubChem BioAssay AID588661 (The Scripps Research Institute Molecular Screening Center, 2011).
Calls of active or inactive are those of the source.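 The calls were made as follows: active = KLF5 protein level in colon cancer cells lowered or raised by 30% or more versus solvent-only cells; inactive = the rest.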

How the values were obtained:
[1] = tested on: SW620 cells, KLF5 protein western blot, 24 h; test: KLF5 protein abundance by immunoblot – western blot, chemiluminescence, SW620 colorectal cells, counter-screen for KLF5 inhibitor project, late-stage follow-up (AID 588661); conditions: measured here: KLF5 protein fold change vs DMSO; at 10 µM
[2] = target: Krueppel-like factor 5 (Homo sapiens) (UniProt Q13887); test: as above; conditions: SW620 cells, KLF5 protein western blot, 24 h; at 10 µM; stronger effect = higher value
Sequence of Krueppel-like factor 5 (Homo sapiens) (Q13887 whole entry, looked up): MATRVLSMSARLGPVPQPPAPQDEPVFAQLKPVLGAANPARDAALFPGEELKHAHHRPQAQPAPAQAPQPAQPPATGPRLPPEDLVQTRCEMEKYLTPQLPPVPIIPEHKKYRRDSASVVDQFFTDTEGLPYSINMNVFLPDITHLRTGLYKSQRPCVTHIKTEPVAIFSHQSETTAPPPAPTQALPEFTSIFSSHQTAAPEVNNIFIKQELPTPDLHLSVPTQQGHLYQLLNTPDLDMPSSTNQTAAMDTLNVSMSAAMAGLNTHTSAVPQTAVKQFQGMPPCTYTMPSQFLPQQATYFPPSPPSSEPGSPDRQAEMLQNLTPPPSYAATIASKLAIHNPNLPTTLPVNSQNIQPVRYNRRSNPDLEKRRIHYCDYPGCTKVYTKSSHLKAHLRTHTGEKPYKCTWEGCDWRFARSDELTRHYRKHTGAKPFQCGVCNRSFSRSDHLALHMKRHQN

inhibition [2]: 7.48% (inactive)
Compound: CN(C(=O)COC(=O)/C=C/c1cccc([N+](=O)[O-])c1)C1CCS(=O)(=O)C1 (configuration not stated)
signed fold change vs DMSO (negative = decrease) [1]: -1.08
